The target in one experiment is T1, serotonin 1A receptor (Rattus norvegicus, UniProt P19327).
T1 construct: To the receptor fraction of the hippocampus were added a test compound and 0.5 nM of [^3H]; 8-hydroxy-dipropylaminotetralin; from tissue; host or cells: rat hippocampus membrane fraction
T1 sequence (P19327 1-422): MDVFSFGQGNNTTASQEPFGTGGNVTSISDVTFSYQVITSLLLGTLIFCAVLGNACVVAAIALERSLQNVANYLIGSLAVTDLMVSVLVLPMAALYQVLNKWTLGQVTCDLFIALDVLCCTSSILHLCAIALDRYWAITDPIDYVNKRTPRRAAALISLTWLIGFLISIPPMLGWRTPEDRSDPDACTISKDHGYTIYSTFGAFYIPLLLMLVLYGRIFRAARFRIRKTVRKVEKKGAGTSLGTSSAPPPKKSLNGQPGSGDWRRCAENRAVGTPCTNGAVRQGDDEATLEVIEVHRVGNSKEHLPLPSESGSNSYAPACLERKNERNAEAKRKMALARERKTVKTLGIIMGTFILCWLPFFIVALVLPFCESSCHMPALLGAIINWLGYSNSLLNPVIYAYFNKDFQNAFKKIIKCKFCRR
The experiment can be described thus: Binding test on [3H] 8-hydroxy-dipropylaminotetralin, hippocampus receptor fraction. The arrangement: species or system SD rats. As to conditions: rat hippocampus receptor fraction, 0.5 nM [3H] 8-OH-DPAT, room temperature 30 min; read-out: 5HT1.

Another experiment deals with T2, serotonin 2 receptor (Rattus norvegicus, UniProt P14842).
T2 construct: To the receptor fraction of the cerebral cortex were added a test compound and 0.3 nM of [^3H] ketanserin; from tissue; host or cells: rat cerebral cortex membrane fraction
The experiment can be described thus: Binding test on [3H] ketanserin, cerebral cortex receptor fraction. The arrangement: species or system SD rats. The following applies: 0.3 nM [3H] ketanserin, 37° C. 15 min, read-out: 5HT2.

Each structure is given as a SMILES string. Where a name gives a salt, the structure may show the parent alone.

T2 sequence (P14842 whole entry): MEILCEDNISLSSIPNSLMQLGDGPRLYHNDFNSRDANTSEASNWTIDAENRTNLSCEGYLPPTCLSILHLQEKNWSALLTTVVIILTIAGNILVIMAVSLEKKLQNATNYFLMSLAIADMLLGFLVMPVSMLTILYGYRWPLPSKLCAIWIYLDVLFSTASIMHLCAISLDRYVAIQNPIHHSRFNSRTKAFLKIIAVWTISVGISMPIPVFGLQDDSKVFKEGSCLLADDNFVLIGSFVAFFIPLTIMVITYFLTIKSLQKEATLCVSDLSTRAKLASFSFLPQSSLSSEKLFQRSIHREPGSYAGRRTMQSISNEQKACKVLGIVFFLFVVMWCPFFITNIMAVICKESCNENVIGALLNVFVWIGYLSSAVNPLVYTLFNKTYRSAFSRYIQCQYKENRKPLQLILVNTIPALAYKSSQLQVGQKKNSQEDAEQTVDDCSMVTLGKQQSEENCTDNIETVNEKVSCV

`CCN1CCN(c2nc(-c3ccc(C4=CCOCC4)nc3)cc3ccccc23)CC1` [Example 155, 3-[2-(5,6-dihydro-2H-pyran-4-yl)pyridin-5-yl]-1-(4-ethylpiperazin-1-yl)isoquinoline oxalate]: the Ki worked out at 20 nM at serotonin 1A receptor and 4.34 nM on serotonin 2 receptor.

Regarding `CCN1CCN(c2nc(-c3ccc(C(=O)NC)cc3)cc3ccccc23)CC1` [Example 365, 1-(4-ethylpiperazin-1-yl)-3-[4-(N-methylcarbamoyl)phenyl]isoquinoline dihydrochloride], the Ki on serotonin 1A receptor was found to be 26.2 nM; at serotonin 2 receptor it was 9.9 nM.

For the compound `CCN1CCN(c2nc(-c3ccc(N4CCC(OC)CC4)cc3)cc3ccccc23)CC1` [Example 98, 1-(4-Ethylpiperazin-1-yl)-3-[4-(4-methoxypiperidin-1-yl)phenyl]isoquinoline Trihydrochloride], the Ki at serotonin 1A receptor was found to be 61.6 nM; at serotonin 2 receptor, 2.7 nM.

With `CCN1CCN(c2nc(-c3ccc(C(O)C4CCCCC4)cc3)cc3ccsc23)CC1` (stereo not drawn) [Example 457, 7-(4-Ethylpiperazin-1-yl)-5-[4-(cyclohexylhydroxymethyl)phenyl]thieno[2,3-c]pyridine dihydrochloride], the Ki at serotonin 1A receptor was 63.3 nM; at serotonin 2 receptor, 281 nM.

As for `COc1ccc(-c2cc3ccsc3c(N3CCN(CCO)CC3)n2)cc1` [Example 276, 5-(4-methoxyphenyl)-7-[4-(2-hydroxyethyl)piperazin-1-yl]thieno[2,3-c]pyridine hydrochloride], the figures for the Ki at serotonin 1A receptor and on serotonin 2 receptor were 160 nM and 0.45 nM, respectively.

As to `CCC(O)c1ncc(-c2cc3ccccc3c(N3CCN(CC)CC3)n2)s1` (stereo not drawn) [Example 170, 1-(1-ethylpiperazin-4-yl)-3-[(1-hydroxypropyl)thiazol-5-yl]isoquinoline dihydrochloride], the Ki on serotonin 1A receptor was 3 nM; on serotonin 2 receptor, 25.4 nM.

Regarding `CCN1CCN(c2nc(C#Cc3ccc(OC)cc3)cc3ccccc23)CC1` [Example 178, 1-(1-Ethylpiperazin-4-Yl)-3-(4-Methoxyphenyl)Ethynylisoquinoline Dihydrochloride], the Ki worked out at 56.4 nM at serotonin 1A receptor and 0.2 nM on serotonin 2 receptor.

Turning to `CCN1CCN(c2nc(-c3ccc(C4=CCC(O)CC4)cc3)cc3ccsc23)CC1` (stereo not drawn) [Example 270, 5-[4-(4-hydroxycyclohexen-1-yl)phenyl]-7-(4-ethylpiperazin-1-yl)thieno[2,3-c]pyridine hydrochloride], the values for the Ki on serotonin 1A receptor and at serotonin 2 receptor were 43 nM and 30.3 nM, respectively.

Regarding `CCN1CCN(c2nc(-c3ccc(C(O)c4nccs4)cc3)cc3ccccc23)CC1` (stereo not drawn) [Example 412, 1-(4-ethylpiperazin-1-yl)-3-[4-(1,3-thiazol-2-yl)hydroxymethylphenyl]isoquinoline], the Ki was found to be 19.1 nM at serotonin 1A receptor and 41.4 nM at serotonin 2 receptor.

For the compound `CCCCC(O)c1ccc(-c2cc3ccsc3c(N3CCN(CC)CC3)n2)cc1` (stereo not drawn) [Example 254, 7-(1-ethylpiperazin-4-yl)-5-[4-(1-hydroxypentyl)phenyl]thieno[2,3-c]pyridine Dihydrochloride], the Ki was determined as 59.7 nM at serotonin 1A receptor and 29.2 nM on serotonin 2 receptor.

Turning to `CCN1CCN(c2nc(-c3ccc(OCC(C)(C)O)cc3)cc3ccsc23)CC1` [Example 260, 7-(1-Ethylpiperazin-4-yl)-5-[4-(2-hydroxy-2-methylpropoxy)phenyl]thieno[2,3-c]pyridine dihydrochloride], the Ki on serotonin 1A receptor came out at 67.8 nM; at serotonin 2 receptor, 0.54 nM.

`CCN1CCN(c2nc(-c3ccc(S(=O)(=O)N(CC)CC)cc3)cc3ccccc23)CC1` [Example 359, 1-(4-ethylpiperazin-1-yl)-3-[4-(N,N-diethylsulfamoyl)phenyl]isoquinoline dihydrochloride]: the values for the Ki at serotonin 1A receptor and at serotonin 2 receptor were 6.1 nM and 3.2 nM, respectively.

Consider `CCN1CCN(c2nc(-c3ccc(CO)s3)cc3ccccc23)CC1` [Example 162, 1-(1-ethylpiperazin-4-yl)-3-(2-hydroxymethylthiophen-5-yl)isoquinoline dihydrochloride], for which the Ki on serotonin 1A receptor was found to be 10.7 nM; on serotonin 2 receptor, 84.7 nM.

Consider `CCN1CCN(c2nc(-c3ccc(OCCOC)nc3)cc3ccsc23)CC1` [Example 269, 5-[2-(2-methoxyethoxy)pyridin-5-yl]-7-(4-ethylpiperazin-1-yl)-thieno[2,3-c]pyridine hydrochloride], for which the Ki on serotonin 1A receptor worked out at 15.5 nM; at serotonin 2 receptor it was 58.4 nM.

Regarding `CCN1CCN(c2nc(-c3ccc(S(=O)(=O)CC)cc3)cc3ccccc23)CC1` [Example 366, 1-(4-ethylpiperazin-1-yl)-3-[4-(ethylsulfonyl)phenyl]isoquinoline dihydrochloride], the values for the Ki at serotonin 1A receptor and at serotonin 2 receptor were 3.8 nM and 7.2 nM, respectively.

On to `CCN1CCN(c2nc(-c3cc(OC)ccn3)cc3ccccc23)CC1` [Example 335, 1-(4-ethylpiperazin-1-yl)-3-(4-methoxypyridin-2-yl)isoquinoline dihydrochloride], for which the results for the Ki on serotonin 1A receptor and at serotonin 2 receptor were 60.1 nM and 20.3 nM, respectively.

As for `CCN1CCN(c2nc(-c3ccc(CCCO)cc3)cc3ccoc23)CC1` [Example 299, 7-(1-ethylpiperazin-4-yl)-5-[4-(3-hydroxypropyl)phenyl]furo[2,3-c]pyridine dihydrochloride], the Ki at serotonin 1A receptor came out at 0.37 nM; at serotonin 2 receptor it was 30.1 nM.

For the compound `CCN1CCN(c2nc(/C=C/c3ccccc3F)cc3ccccc23)CC1` [Example 197, 1-(1-Ethylpiperazin-4-Yl)-3-[Trans-2-(2-Fluorophenyl)Ethenyl]isoquinoline Oxalate], the values for the Ki on serotonin 1A receptor and at serotonin 2 receptor were 70.7 nM and 4.26 nM, respectively.

Turning to `CCNS(=O)(=O)Cc1ccc(-c2cc3ccccc3c(N3CCN(CC)CC3)n2)cc1` [Example 80, 3-(4-Ethylaminosulfonylmethylphenyl)-1-(4-Ethylpiperazin-1-Yl)Isoquinoline Hydrochloride], the results for the Ki at serotonin 1A receptor and at serotonin 2 receptor were 0.8 nM and 16.3 nM, respectively.

`CCN1CCN(c2nc(CCc3ccc(OC)cc3)cc3ccccc23)CC1` [Example 106, 1-(1-Ethylpiperazin-4-yl)-3-(4-methoxyphenethyl)isoquinoline]: the Ki came to 70 nM at serotonin 1A receptor and 30.6 nM on serotonin 2 receptor.

Consider `CCN1CCN(c2nc(-c3ccc([C@@H]4C[C@H](O)CCO4)cc3)cc3ccccc23)CC1` (relative stereo) [Example 401, 1-(4-Ethylpiperazin-1-yl)-3-[4-(cis-4-Hydroxytetrahydropyran-2-yl)Phenyl]Isoquinoline Dihydrochloride], for which the Ki was determined as 31.3 nM on serotonin 1A receptor and 3.4 nM on serotonin 2 receptor.

Consider `CCN1CCN(c2nc(-c3cccc(OCCO)c3)cc3ccoc23)CC1` [Example 298, 7-(1-ethylpiperazin-4-yl)-5-[3-(2-hydroxyethoxy)phenyl]furo[2,3-c]pyridine dihydrochloride], for which the Ki was 1.72 nM at serotonin 1A receptor and 5.37 nM at serotonin 2 receptor.

As for `CCCS(=O)(=O)c1ccc(-c2cc3ccsc3c(N3CCN(CC)CC3)n2)cc1` [Example 451, 7-(4-ethylpiperazin-1-yl)-5-(4-propanesulfonylphenyl)thieno[2,3-c]pyridine dihydrochloride], the Ki is 7.72 nM on serotonin 1A receptor and 37.9 nM on serotonin 2 receptor.

With `CCN1CCN(c2nc(-c3ccc(COCCO)cc3)cc3ccccc23)CC1` [Example 44, 3-[4-(2-Hydroxyethoxylmethylphenyl]-1-(4-ethylpiperazin-1-Yl)Isoquinoline Hydrochloride], the Ki amounted to 55.4 nM on serotonin 1A receptor and 9 nM at serotonin 2 receptor.

With `CCN1CCN(c2nc(-c3cccc(OCCO)c3)cc3ccccc23)CC1` [Example 329, 1-(4-Ethylpiperazin-1-yl)-3-[3-(2-hydroxyethoxy)phenyl]isoquinoline dihydrochloride], the Ki at serotonin 1A receptor was determined as 31.6 nM; at serotonin 2 receptor, 73.6 nM.

As for `CCN1CCN(c2nc(-c3ccc(C4COCCO4)cc3)cc3ccccc23)CC1` (stereo not drawn) [Example 395, 1-(4-Ethylpiperazin-1-yl)-3-[4-(1,4-Dioxan-2-yl)Phenyl]Isoquinoline Dihydrochloride], the Ki at serotonin 1A receptor came to 37.3 nM; at serotonin 2 receptor it was 4.8 nM.

Take `CCN1CCN(c2nc(-c3ccc(CN4CCOCC4)cc3)cc3ccccc23)CC1` [Example 93, 3-(4-Morpholinylmethylphenyl)-1-(4-ethylpiperazin-1-yl)isoquinoline Hydrochloride]: the Ki at serotonin 1A receptor amounted to 10.8 nM; at serotonin 2 receptor, 56.7 nM.

With `CCN1CCN(c2nc(N3CCN(c4ccccn4)CC3)cc3ccccc23)CC1` [Example 159, 1-(1-ethylpiperazin-4-yl)-3-[1-(2-pyridyl)piperazin-4-yl]isoquinoline], the results for the Ki on serotonin 1A receptor and at serotonin 2 receptor were 0.65 nM and 13.2 nM, respectively.

As for `CCN1CCN(c2nc(-c3ccc(OCC(O)CO)cc3)cc3ccccc23)CC1` (stereo not drawn) [Example 337, 1-(4-ethylpiperazin-1-yl)-3-[4-(2,3-dihydroxypropoxy)phenyl]isoquinoline dihydrochloride], the Ki was determined as 25.7 nM on serotonin 1A receptor and 5.6 nM on serotonin 2 receptor.

For `CCN1CCN(c2nc(-c3ccc(S(C)(=O)=O)nc3)cc3ccccc23)CC1` [Example 129, 3-[(2-Methylsulfonylpyridin)-5-yl]-1-(4-Ethylpiperazin-1-yl)Isoquinoline Hydrochloride], the Ki on serotonin 1A receptor was determined as 21.6 nM; at serotonin 2 receptor, 18.4 nM.

Values taken from US6875761B2 (Eisai Co., Ltd., priority 1997, dated 2005).
